Read-outs that look alike come from different tables or passages of the source.
What was measured:
sound-induced seizures = assay: Sound-induced (audiogenic) seizures in DBA/2 mice, i.c.v. or i.p. (WR, clonus, tonus); type: in vivo; details: for order of potency: congeneric series of phosphonic acid analogues, i.c.v. DBA/2 mice; for Minimum dose to suppress WR / ED50 Clonus / ED50 Tonus / ED50 WR / activity (in words): i.c.v., DBA/2 mice; for Minimum dose to suppress WR: 45 minutes before sound, P < .01; for ED50 WR: wild running phase
Procedure: (§1) Dicarboxylic amino acids and their thio-analogues were tested as potential anticonvulsants in animal models of epilepsy by being administered intracerebroventricularly (i.c.v.) or intraperitoneally (i.p.) in mice (either DBA/2 mice showing sound-induced seizures, or Swiss S mice given a just-convulsant dose of pentylenetetrazol, s.c.) or intravenously in baboons, Papio papio, with photosensitive epilepsy. A close correlation was found between the ability of antagonists to block excitation due to NMDA (N-methyl-D-aspartic acid) and suppression of sound-induced seizures following i.c.v. injection in DBA/2 mice. […] Following systemic administration in mice 2-amino-7-phosphonoheptanoic acid was active against sound-induced seizures (0.1-0.33 mmoles/kg, i.p.) and against pentylenetetrazol seizures (1.2 mmoles/kg). It is also active against photosensitive epileptic responses in baboons (1.0 mmoles/kg, i.v.)
(i) Anticonvulsant activity of excitatory amino acid antagonists in DBA/2 mice
DBA/2 mice were chosen as being an inbred strain in which, within a critical age range, a fixed sequence of seizure response can be induced by a loud sound. Groups of DBA/2 mice (N=6 to 10), 21 to 28 days old, were injected intracerebroventricularly under light ether anesthesia with 10 μl of drug solution or phosphate buffer alone (pH 7.3). Auditory stimulation (electric bell generating 109 dB at mouse level) was applied 45 minutes later for 60 seconds or until tonic extension was observed and the incidence and timing of the phases of the seizure response were recorded. These included an initial wild running phase (WR) followed by myocolonus, tonic flexion, and extension and, frequently, respiratory arrest. Seizure response was scored as described in Eur. J. Pharmacol 59, 75 (1979), and comparisons between groups of control and drug-treated animals were made by using Fisher's exact probability test. Successive doses, with a geometric factor of 3, were tested until an adequate log dose-response curve (three to six points) could be constructed for each antagonist for each phase of the seizure response, and ED50 values were graphically determined. A rank order of anticonvulsant potency was allocated to each antagonist for comparison with iontophoretic data; O denoting no activity and X to XXXX denoting increasingly marked activity.
(§2) Studies of audiogenic seizures were performed as described in Example(i). For intraperitoneal administration the antagonist was injected with 0.1 ml of saline 45 minutes before testing. Antagonism of pentylenetetrazol (PTZ: threshold) seizures was studied in random-bred Swiss mice (Tuck T/O strain: 28 days old; 20 to 23 g). Mice in groups (N=10) received pentylenetetrazol (85 mg/kg: 0.85 percent solution in 0.9 percent sodium chloride) subcutaneously in a loose fold of skin on the back of the neck 45 minutes after intracerenroventricular or intraperitoneal administration of drug or vehicle. During the 30-minute observation period sustained rhythmic clonic jerking with tonic spasms occured in 90 to 100 percent of control mice. The incidence and timing of clonic episodes was recorded with absence of sustained clonic jerking (no episode of 5 seconds duration or longer) being defined as protection. The ED50 values and 95 percent fiducial limits were estimated by using the method of moving averages (by the method described in Biometrics 8, 249 (1952) with data from four successive dose levels.

[1] = tested on: pentylenetetrazol seizures; assay: Pentylenetetrazol-induced seizures in Swiss S mice; type: in vivo
Procedure: as §1, §2

[2] = tested on: photosensitive epileptic responses; assay: Photosensitive epilepsy in baboons; type: in vivo, Papio papio; details: i.v.
Procedure: as §1

[3] = tested on: Kainic acid-excited receptors; assay: Block of kainic acid-excited receptors; details: CNS receptors
[4] = tested on: ibotenic acid-excited receptors; assay: Block of ibotenic acid-excited receptors; details: CNS receptors
quisqualate receptor = details: cited from earlier work
NMDA = details: cited from earlier work
[5] = tested on: kainate-induced excitation; details: cited from earlier work

| Compound | order of potency (sound-induced seizures) | Minimum dose to suppress WR (sound-induced seizures) | ED50 Clonus (sound-induced seizures) | ED50 Tonus (sound-induced seizures) | ED50 WR (sound-induced seizures) | also measured |
| --- | --- | --- | --- | --- | --- | --- |
| NC(CCP(=O)(O)O)C(=O)O (racemic) [(±)-2-Amino-4-phosphonobutyric acid, reference compound] | 2-amino-7-phosphonoheptanoate>2-amino-5-phosphonopentanoic acid>2-amino-6-phosphonohexanoic acid>2-amino-4-phosphonobutyric acid |  |  |  |  |  |
| NC(CCCP(=O)(O)O)C(=O)O (racemic) [(±)-2-Amino-5-phosphonopentanoic acid] | 2-amino-7-phosphonoheptanoate>2-amino-5-phosphonopentanoic acid>2-amino-6-phosphonohexanoic acid>2-amino-4-phosphonobutyric acid | 0.1 μ mole | 0.022 μ mole | 0.025 μ mole | 0.046 μ mole |  |
| NC(CCCCP(=O)(O)O)C(=O)O (racemic) [(±)-2-Amino-6-phosphonohexanoic acid] | 2-amino-7-phosphonoheptanoate>2-amino-5-phosphonopentanoic acid>2-amino-6-phosphonohexanoic acid>2-amino-4-phosphonobutyric acid | 0.25 μ mole | 0.14 μ mole | 0.15 μ mole | 0.17 μ mole |  |
| NC(CCCCCP(=O)(O)O)C(=O)O (racemic) [(±)-2-Amino-7-phosphonoheptanoic acid, (±)2-amino-7-phosphonoheptanoic acid] | 2-amino-7-phosphonoheptanoate>2-amino-5-phosphonopentanoic acid>2-amino-6-phosphonohexanoic acid>2-amino-4-phosphonobutyric acid | 0.01 μ mole |  | 0.0008 μ mole | 0.004 μ mole | ED50 ([1]; Mus musculus, ip, intraperitoneal, pentylenetetrazol 85 mg/kg s.c., read-out: ED50 V PTZ (95% fiducial limits)): 1180 µmol/kg; ED50 V PTZ (95% fiducial limits) ([1]; intracerebroventricular, pentylenetetrazol 85 mg/kg s.c.): 0.64 (0.19-2.13) μ mole; active against pentylenetetrazol seizures, dose ([1]; mice, systemic administration): 1.2 mmol/kg; active against photosensitive epileptic responses, dose [2]: 1.0 mmol/kg; minimal effective dose (sound-induced seizures; Mus musculus, ip, 0.75 h, read-out: Minimum dose to suppress WR): 330 µmol/kg; ED50 (sound-induced seizures; Mus musculus, ip, read-out: ED50 Clonus): 40 µmol/kg; ED50 (sound-induced seizures; Mus musculus, ip, read-out: ED50 Tonus): 40 µmol/kg; ED50 (sound-induced seizures; Mus musculus, ip, read-out: ED50 WR): 180 µmol/kg; active against sound-induced seizures, dose (sound-induced seizures; mice, i.p.): 0.1 to 0.33 mmol/kg |
| NC(CCCCCP(=O)(O)O)C(=O)O (single isomer, unassigned; (+)) [(+)-2-Amino-7-phosphonoheptanoic acid] |  | 0.033 μ mole | 0.0018 μ mole | 0.0018 μ mole | 0.0135 μ mole |  |
| N[C@H](CCCCCP(=O)(O)O)C(=O)O [(-)-2-Amino-7-phosphonoheptanoic acid] |  | 0.0033 μ mole | 0.0008 μ mole | 0.0008 μ mole | 0.0022 μ mole | blocking of Kainic acid-excited receptors [3]: not a blocker of Kainic acid-excited receptors; blocking of ibotenic acid-excited receptors [4]: blocker of ibotenic acid-excited receptors |
| CCOC(=O)CC[C@H](N)C(=O)OCC [Glutamic acid diethylester, reference compound] |  |  |  |  |  | quisqualate receptor antagonism (quisqualate receptor): quisqualate receptor antagonist; activity (in words) (sound-induced seizures): inactive |
| N[C@H](CCC(=O)NCC(=O)O)C(=O)O [γ-D-Glutamylglycine, reference compound] |  | 0.1 μ mole | 0.046 μ mole | 0.054 μ mole | 0.058 μ mole | activity (in words) (sound-induced seizures): equipotent with 2-amino-5-phosphonoheptanoic acid; antagonism of NMDA-induced excitation (NMDA): antagonist of both kainate and NMDA-induced excitation; antagonism of kainate-induced excitation [5]: antagonist of both kainate and NMDA-induced excitation |
